Results reported in PubChem BioAssay (NCI).
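How tested: cells in 96-well plates exposed to compound for 48 hours at five concentrations. GI50 is the concentration that inhibits growth by half. TGI marks complete inhibition of growth.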

Columns and labels:
Test in all cases: growth of human tumour cells (NCI), 48 h
UACC-62 melanoma = tested on: UACC-62 melanoma
MDA-MB-231 breast = tested on: MDA-MB-231 breast
MALME-3M melanoma = tested on: MALME-3M melanoma
OVCAR-4 ovarian = tested on: OVCAR-4 ovarian
K-562 leukemia = tested on: K-562 leukemia
SF-268 CNS = tested on: SF-268 CNS
BT-549 breast = tested on: BT-549 breast
MCF7 breast = tested on: MCF7 breast
LOX IMVI melanoma = tested on: LOX IMVI melanoma
DU-145 prostate = tested on: DU-145 prostate
MOLT-4 leukemia = tested on: MOLT-4 leukemia
SF-295 CNS = tested on: SF-295 CNS
RXF 393 renal = tested on: RXF 393 renal
UACC-257 melanoma = tested on: UACC-257 melanoma
PC-3 prostate = tested on: PC-3 prostate
NCI-H226 lung = tested on: NCI-H226 lung
OVCAR-8 ovarian = tested on: OVCAR-8 ovarian
NCI-H522 lung = tested on: NCI-H522 lung
786-0 renal = tested on: 786-0 renal
SK-OV-3 ovarian = tested on: SK-OV-3 ovarian
MDA-MB-468 breast = tested on: MDA-MB-468 breast
HCC-2998 colon = tested on: HCC-2998 colon
HOP-92 NSCLC = tested on: HOP-92 NSCLC
T-47D breast = tested on: T-47D breast
HT29 colon = tested on: HT29 colon
SF-539 CNS = tested on: SF-539 CNS
HOP-62 NSCLC = tested on: HOP-62 NSCLC
SNB-75 CNS = tested on: SNB-75 CNS

SMILES: NC(=Nc1ccc(OCCCCCCCCn2cnnn2)cc1)c1ccccc1
- TGI (UACC-62 melanoma): 19900 nM
- GI50 (MDA-MB-231 breast): 439 nM
- TGI (MDA-MB-231 breast): 9700 nM
- GI50 (MALME-3M melanoma): 266 nM
- TGI (MALME-3M melanoma): 18200 nM
- GI50 (OVCAR-4 ovarian): 12400 nM
- TGI (OVCAR-4 ovarian): > 100000 nM
- GI50 (K-562 leukemia): 183 nM
- TGI (K-562 leukemia): > 55100 nM
- GI50 (SF-268 CNS): 6870 nM
- TGI (SF-268 CNS): > 79700 nM
- GI50 (BT-549 breast): 836 nM
- TGI (BT-549 breast): 18800 nM
- GI50 (MCF7 breast): 157 nM
- TGI (MCF7 breast): 18900 nM
- GI50 (LOX IMVI melanoma): 488 nM
- TGI (LOX IMVI melanoma): 13900 nM
- GI50 (DU-145 prostate): 438 nM
- TGI (DU-145 prostate): > 100000 nM
- GI50 (MOLT-4 leukemia): 460 nM
- TGI (MOLT-4 leukemia): > 72200 nM
- GI50 (SF-295 CNS): 281 nM
- TGI (SF-295 CNS): 12400 nM
- GI50 (RXF 393 renal): 216 nM
- TGI (RXF 393 renal): 752 nM
- GI50 (UACC-257 melanoma): 8360 nM
- TGI (UACC-257 melanoma): > 60000 nM
- GI50 (PC-3 prostate): 454 nM
- TGI (PC-3 prostate): 97700 nM
- GI50 (NCI-H226 lung): 321 nM
- TGI (NCI-H226 lung): 4550 nM
- GI50 (OVCAR-8 ovarian): 490 nM
- TGI (OVCAR-8 ovarian): > 64800 nM
- GI50 (NCI-H522 lung): 201 nM
- TGI (NCI-H522 lung): 720 nM
- GI50 (786-0 renal): 507 nM
- TGI (786-0 renal): 30900 nM
- GI50 (SK-OV-3 ovarian): 439 nM
- TGI (SK-OV-3 ovarian): 35900 nM
- GI50 (MDA-MB-468 breast): 167 nM
- TGI (MDA-MB-468 breast): 695 nM
- GI50 (HCC-2998 colon): 494 nM
- TGI (HCC-2998 colon): 11700 nM
- GI50 (HOP-92 NSCLC): 8000 nM
- TGI (HOP-92 NSCLC): 59400 nM
- GI50 (T-47D breast): 392 nM
- TGI (T-47D breast): 63200 nM
- GI50 (HT29 colon): 269 nM
- TGI (HT29 colon): 2260 nM
- GI50 (SF-539 CNS): 223 nM
- TGI (SF-539 CNS): 606 nM
- GI50 (HOP-62 NSCLC): 439 nM
- TGI (HOP-62 NSCLC): 18900 nM
- GI50 (SNB-75 CNS): 400 nM
- TGI (SNB-75 CNS): 50200 nM
